From article PMC6705855, “Computational and experimental elucidation of Plasmodium falciparum phosphoethanolamine methyltransferase inhibitors: Pivotal drug target” (PLoS ONE, 2019)
Where two headings read alike, the source gives them in different places.

Columns and labels:
[1] = biological target: T1, Phosphoethanolamine methyltransferase (PfPMT) (Plasmodium falciparum, UniProt Q8IDQ9); test: enzyme-coupled SAM methyltransferase colorimetric assay ([…] nm), Michaelis-Menten kinetics with varied pEth; type: biochemical
T1 construct: gene PMT; recombinant PfPMT expressed from pET-24a in BL21 (DE3), ~30 kDa
T1 sequence (Q8IDQ9 1-266): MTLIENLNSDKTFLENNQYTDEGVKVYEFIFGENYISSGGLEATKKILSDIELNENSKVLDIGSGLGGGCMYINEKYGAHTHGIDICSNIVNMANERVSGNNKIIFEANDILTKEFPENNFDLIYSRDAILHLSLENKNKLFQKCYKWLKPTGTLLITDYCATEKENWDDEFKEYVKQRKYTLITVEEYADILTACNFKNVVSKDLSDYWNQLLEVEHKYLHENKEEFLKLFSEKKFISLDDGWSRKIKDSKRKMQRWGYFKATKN

[2] = substrate: NCCOP(=O)(O)O; test: purified protein; type: biochemical, Plasmodium falciparum; details: SAM substrate (phosphobase) site

`NC(Cc1cc(=O)nc(-c2ccccn2)[nH]1)c1ccc(F)cc1` (stereo not drawn) [ASN.1, 6-[Amino-2-(4-fluoro-phenyl)-ethyl]-pyridin-2-yl-1H-pyrimidin-4-one] showed a Ki [1] of 1200 nM.

Work on `COc1ccc(CCNC(=O)CNCC2CCCO2)cc1OC` (stereo not drawn) [ASN.3, N-[2-(3,4-Dimethoxy-phenyl)-ethyl]-2-[(tetrahydro-furan-2-ylmethyl)-amino]-acetamide] yielded a Ki ([1]; read-out: Ki) of 2200 nM.

B1: Phosphoethanolamine methyltransferase (PfPMT) (Plasmodium falciparum 3D7) (protein)
chain: T1 sequence (Q8IDQ9 1-266)
notes: recombinant PfPMT expressed from pET-24a in BL21 (DE3), ~30 kDa
With B1 the Km [2] was 52.4 µM.
